IC50 and inhibition data for 25 compounds are collected here from EP2951180B1, “2,6,7,8 SUBSTITUTED PURINES AS HDM2 INHIBITORS” (Merck Sharp & Dohme Corp., priority 2013, dated 2014).

The target in the first experiment is T1, HDM2 (Homo sapiens, UniProt Q00987).
T1 construct: Thioredoxin (N); made in house; host or cells: E. coli strain BL21(DE3)Rosetta
T1 sequence (Q00987 17-125): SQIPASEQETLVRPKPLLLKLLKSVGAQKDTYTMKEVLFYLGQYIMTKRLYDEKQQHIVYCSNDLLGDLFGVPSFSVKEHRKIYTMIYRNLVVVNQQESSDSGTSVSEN
Nature of the experiment: HDM2 FRET assay (inhibition of binding of FITC labeled p53-pocket peptide to HDM2). As to conditions: 0.5 nM HDM2 (residues 17 to 125), 3nM peptide, two hour incubation at room temperature; read-out: FRET IC50. The method in brief:
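Final: 0.5 nM His-HDM2, 3 nM FITC peptide, 0.25 nM Tb anti-His Ab; PBS, 0.01% BSA, 0.01% Tween-20; 0.1% DMSO.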
The term IC50 denotes the concentration that gives 50% inhibition. As to `C[C@@H](Nc1nc(C(O)CO)nc2nc(N3CCOC[C@H]3c3ccccc3)n(C[C@H]3CC[C@H](C)CC3)c12)C1CCC1` (stereo partly drawn) [Example 12.20, 1-(6-(((R)-1-cyclobutylethyl)amino)-7-((trans-4-methylcyclohexyl)methyl)-8-((R)-3-phenylmorpholino)-7H-purin-2-yl)ethane-1,2-diol], the concentration for half-maximal inhibition (IC50) is 49.4 nM.
Same read-out and setting: to `CC(=O)c1nc(N[C@H](C)C2CCC2)c2c(n1)nc(N1CCOC[C@H]1c1ccccc1)n2C[C@H]1CC[C@H](C)CC1` [Example 12.21, 1-(6-{[(1R)-1-cyclobutylethyl]amino}-7-[(trans-4-methylcyclohexyl)methyl]-8-[(3R)-3-phenylmorpholin-4-yl]-7H-purin-2-yl)ethanone] belongs 53.3 nM; to `C[C@@H](Nc1nc(CO)nc2nc(N3CCOC[C@H]3c3ccccc3)n(C[C@H]3CC[C@H](C)CC3)c12)C1CCC1` [Example 12.22, (6-{[(1R)-1-cyclobutylethyl]amino}-7-[(trans-4-methylcyclohexyl)methyl]-8-[(3R)-3-phenylmorpholin-4-yl]-7H-purin-2-yl)methanol], 78.6 nM.
Same read-out and setting: to `CC(=O)c1nc(N[C@H](C)C2CCC2)c2c(n1)nc(N1CCOC[C@H]1c1ccccc1)n2C[C@H]1CC[C@H](C)CC1` [Example 12.23, 1-(6-{[(1R)-1-cyclobutylethyl]amino}-7-[(trans-4-methylcyclohexyl)methyl]-8-[(3R)-3-phenylmorpholin-4-yl]-7H-purin-2-yl)ethanone] belongs 53.3 nM; to `C[C@@H](Nc1nc(C(=O)NS(=O)(=O)N(C)C)nc2nc(N3CCOC[C@H]3c3ccccc3)n(C[C@H]3CC[C@H](C)CC3)c12)C1CCC1` [Example 12.24, 6-{[(1R)-1-cyclobutylethyl]amino}-N-(dimethylsulfamoyl)-7-[(trans-4-methylcyclohexyl)methyl]-8-[(3R)-3-phenylmorpholin-4-yl]-7H-purine-2-carboxamide], 1.41 nM.
The same measure, in the same setting: to `Cc1cccc(-c2nc3nc(C(=O)NS(C)(=O)=O)nc(N[C@H](C)C4CC4)c3n2Cc2ccc(C(F)(F)F)cc2)c1` [Example 12.25, 6-{[(1R)-1-cyclopropylethyl]amino}-8-(3-methylphenyl)-N-(methylsulfonyl)-7-[4-(trifluoromethyl)benzyl]-7H-purine-2-carboxamide] belongs 1070 nM.
Regarding `Cc1cccc(-c2nc3nc(-c4nnn[nH]4)nc(N[C@H](C)C4CC4)c3n2Cc2ccc(C(F)(F)F)cc2)c1` [Example 12.26, N-[(1R)-1-cyclopropylethyl]-8-(3-methylphenyl)-2-(1H-tetrazol-5-yl)-7-[4-(trifluoromethyl)benzyl]-7H-purin-6-amine], the IC50 turned out to be 53 nM.
On the same count and under the same terms, to `Cc1cccc(-c2nc3nc(C(N)=O)nc(N[C@H](C)C4CC4)c3n2Cc2ccc(C(F)(F)F)cc2)c1` [Example 12.27, 6-{[(1R)-1-cyclopropylethyl]amino}-8-(3-methylphenyl)-7-[4-(trifluoromethyl)benzyl]-7H-purine-2-carboxamide] belongs 2040 nM; to `Cc1cccc(-c2nc3nc(-c4nc[nH]n4)nc(N[C@H](C)C4CC4)c3n2Cc2ccc(C(F)(F)F)cc2)c1` [Example 12.28, N-[(1R)-1-cyclopropylethyl]-8-(3-methylphenyl)-2-(1H-1,2,4-triazol-3-yl)-7-[4-(trifluoromethyl)benzyl]-7H-purin-6-amine], 314 nM; to `Cc1cccc(-c2nc3nc(C(N)=O)nc(N[C@H](C)C4CCC4)c3n2Cc2ccc(C(F)(F)F)cc2)c1` [Example 12.29, 6-{[(1R)-1-cyclobutylethyl]amino} -8-(3-methylphenyl)-7-[4-(trifluoromethyl)benzyl]-7H-purine-2-carboxamide], 1410 nM.
Consider `CNC(=O)c1nc(N[C@H](C)C2CCC2)c2c(n1)nc(-c1cccc(C)c1)n2Cc1ccc(C(F)(F)F)cc1` [Example 12.30, 6-{[(1R)-1-cyclobutylethyl]amino}-N-methyl-8-(3-methylphenyl)-7-[4-(trifluoromethyl)benzyl]-7H-purine-2-carboxamide], for which the concentration for half-maximal inhibition (IC50) was 873 nM.
Same read-out and setting: to `CONC(=O)c1nc(N[C@H](C)C2CCC2)c2c(n1)nc(-c1cc(C(C)C)ccn1)n2Cc1ccc(C(F)(F)F)cc1` [Example 12.32, 6-{[(1R)-1-cyclobutylethyl]amino}-N-methoxy-8-[4-(1-methylethyl)pyridin-2-yl]-7-[4-(trifluoromethyl)benzyl]-7H-purine-2-carboxamide] belongs 42.5 nM; to `C[C@@H](Nc1nc(CO)nc2nc(N3CCOC[C@H]3c3ccccc3)n(Cc3ccc(C(F)(F)F)cc3)c12)C1CCC1` [Example 12.33, (6-{[(1R)-1-cyclobutylethyl]amino}-8-[(3R)-3-phenylmorpholin-4-yl]-7-[4-(trifluoromethyl)benzyl]-7H-purin-2-yl)methanol], 151 nM; to `CC(C)c1ccnc(-c2nc3nc(CO)nc(N[C@H](C)C4CCC4)c3n2C[C@H]2CC[C@H](C)CC2)c1` [Example 12.34, (6-{[(1R)-1-cyclobutylethyl]amino}-7-[(trans-4-methylcyclohexyl)methyl]-8-[4-(1-methylethyl)pyridin-2-yl]-7H-purin-2-yl)methanol], 301 nM.
Same read-out and setting: to `C[C@@H](Nc1nc(NCCO)nc2nc(N3CCOC[C@H]3c3ccccc3)n(C[C@H]3CC[C@H](C)CC3)c12)C1CCC1` [Example 13.1, 2-((6-(((R)-1-cyclobutylethyl)amino)-7-((trans-4-methylcyclohexyl)methyl)-8-((R)-3-phenylmorpholino)-7H-purin-2-yl)amino)ethanol] belongs 885 nM; to `C[C@@H](Nc1nc(N2CCC[C@H]2C(=O)O)nc2nc(N3CCOC[C@H]3c3ccccc3)n(C[C@H]3CC[C@H](C)CC3)c12)C1CCC1` [Example 13.2, 1-(6-{[(1R)-1-cyclobutylethyl]amino}-7-[(trans-4-methylcyclohexyl)methyl]-8-[(3R)-3-phenylmorpholin-4-yl]-7H-purin-2-yl)-L-proline], 987 nM; to `C[C@@H](Nc1nc(N2CCC[C@@H]2C(=O)O)nc2nc(N3CCOC[C@H]3c3ccccc3)n(C[C@H]3CC[C@H](C)CC3)c12)C1CCC1` [Example 13.4, 1-(6-{[(1R)-1-cyclobutylethyl]amino}-7-[(trans-4-methylcyclohexyl)methyl]-8-[(3R)-3-phenylmorpholin-4-yl]-7H-purin-2-yl)-D-proline], 96.1 nM.
As to `C[C@@H](Nc1nc(NC(C)(C)C(=O)O)nc2nc(N3CCOC[C@H]3c3ccccc3)n(C[C@H]3CC[C@H](C)CC3)c12)C1CCC1` [Example 13.5, N-(6-{[(1R)-1-cyclobutylethyl]amino}-7-[(trans-4-methylcyclohexyl)methyl]-8-[(3R)-3-phenylmorpholin-4-yl]-7H-purin-2-yl)-2-methylalanine], the IC50 came out at 260 nM.
Same read-out and setting: to `C[C@@H](Nc1nc(NCC(=O)O)nc2nc(N3CCOC[C@H]3c3ccccc3)n(C[C@H]3CC[C@H](C)CC3)c12)C1CCC1` [Example 13.6, N-(6-{[(1R)-1-cyclobutylethyl]amino}-7-[(trans-4-methylcyclohexyl)methyl]-8-[(3R)-3-phenylmorpholin-4-yl]-7H-purin-2-yl)glycine] belongs 146 nM; to `C[C@@H](Nc1nc(N2CCC[C@]2(C)C(=O)O)nc2nc(N3CCOC[C@H]3c3ccccc3)n(C[C@H]3CC[C@H](C)CC3)c12)C1CCC1` [Example 13.7, 1-(6-{[(1R)-1-cyclobutylethyl]amino}-7-[(trans-4-methylcyclohexyl)methyl]-8-[(3R)-3-phenylmorpholin-4-yl]-7H-purin-2-yl)-2-methyl-D-proline], 224 nM; to `C[C@@H](Nc1nc(N(C)CC(=O)O)nc2nc(N3CCOC[C@H]3c3ccccc3)n(C[C@H]3CC[C@H](C)CC3)c12)C1CCC1` [Example 13.8, N-(6-{[(1R)-1-cyclobutylethyl]amino}-7-[(trans-4-methylcyclohexyl)methyl]-8-[(3R)-3-phenylmorpholin-4-yl]-7H-purin-2-yl)-N-methylglycine], 120 nM.
Take `C[C@@H](Nc1nc(N2CCC(C(=O)O)C2)nc2nc(N3CCOC[C@H]3c3ccccc3)n(C[C@H]3CC[C@H](C)CC3)c12)C1CCC1` (stereo partly drawn) [Example 13.9, 1-(6-{[(1R)-1-cyclobutylethyl]amino}-7-[(trans-4-methylcyclohexyl)methyl]-8-[(3R)-3-phenylmorpholin-4-yl]-7H-purin-2-yl)pyrrolidine-3-carboxylic acid]: the IC50 is 199 nM.
On the same count and under the same terms, to `CSC1(C(=O)O)CCN(c2nc(N[C@H](C)C3CCC3)c3c(n2)nc(N2CCOC[C@H]2c2ccccc2)n3C[C@H]2CC[C@H](C)CC2)C1` (stereo partly drawn) [Example 13.10, 1-(6-{[(1R)-1-cyclobutylethyl]amino}-7-[(trans-4-methylcyclohexyl)methyl]-8-[(3R)-3-phenylmorpholin-4-yl]-7H-purin-2-yl)-3-(methylsulfanyl)pyrrol idine-3-carboxylic acid] belongs 248 nM; to `C[C@@H](Nc1nc(N2CC(C(=O)O)C(C)(C)C2)nc2nc(N3CCOC[C@H]3c3ccccc3)n(C[C@H]3CC[C@H](C)CC3)c12)C1CCC1` (stereo partly drawn) [Example 13.11, 1-(6-{[(1R)-1-cyclobutylethyl]amino}-7-[(trans-4-methylcyclohexyl)methyl]-8-[(3R)-3-phenylmorpholin-4-yl]-7H-purin-2-yl)-4,4-dimethylpyrrolidine-3 - carboxylic acid], 95.9 nM.

Still in this experiment, the particulars now being: read-out: % inh. at 1000 nM; at 1000 nM compound.
Regarding `CNc1nc(N[C@H](C)C2CCC2)c2c(n1)nc(N1CCOC[C@H]1c1ccccc1)n2C[C@H]1CC[C@H](C)CC1` [Example 13.3, N^6-[(1R)-1-cyclobutylethyl]-N^2-methyl-7-[(trans-4-methylcyclohexyl)methyl]-8-[(3R)-3-phenylmorpholin-4-yl]-7H-purine-2,6-diamine], the inhibition at 1 µM was determined as 46%.
